Test results reported in US20180271930A1, “METHOD FOR RAISING POULTRY” (priority 2015, published 2018).

Tests used:
myostatin = test: Examination 3: myostatin mRNA expression in skeletal muscle cells in differentiation medium; type: cell-based, broiler chicks (Ross 308); conditions: 100 μM GSSG in differentiation medium; cells recovered 0, 12, 24 h; FIG. 2B, n=6
From the text: FIGS. 2A to 2D illustrate graphs showing the expression levels of genes related to skeletal muscle cell differentiation upon the addition of GSSG during the skeletal muscle cell differentiation period in Examination 3 (n=6). […] A relative value of the expression level of each factor is expressed as an average±standard deviation of values obtained by dividing the expression levels of each factor by the expression level of RPS9. Each different symbol denotes a significant difference in the […] multiple comparison test (P<0.05). Oxidized glutathione (GSSG) was added to a differentiation-promoting culture medium system of skeletal muscle cells collected from newly hatched broiler chicks (Ross 308, Ross Breeders Ltd.) (under culture conditions simulating the state of skeletal muscle cells of neonatal chicks), phosphorylation of signal factors was analyzed by Western blot, and the differentiation inhibition mechanism was investigated. Expression levels of MyoD, myostatin, IGF-I, and Pax7 as genes involved in myogenesis were determined. Pax7 is a muscle satellite cell marker. […] The expression level of Pax7 was determined by the method described in Examination 1 except that the primer set used herein was a primer set listed in the table below. […] The cells were recovered 0, 12, and 24 hours later, and the expression levels of genes involved in myogenesis were determined. […]

myogenin = test: Examination 1: myogenin gene expression in superficial pectoral muscle (real-time PCR, relative to RPS9); type: in vivo, broiler chicks of the Chunky breed (Ross 308); conditions: 3 days old, GSSG addition group (0.01% or 0.1% feed), FIG. 1B, n=6
From the text: FIGS. 1A to 1D illustrate graphs showing the expression of genes related to skeletal muscle cell differentiation in superficial pectoral muscles upon administration of each feed composition in Examination 1 (n=6). […] A relative value of the expression level of each factor is expressed as an average±standard deviation of values obtained by dividing the expression levels of each factor by the expression level of RPS9. Each different symbol denotes a significant difference in the […] multiple comparison test (P<0.05). Newly hatched broiler chicks of the Chunky breed (Ross 308, Ross Breeders Ltd.) were tested. […] Real-time PCR was performed by adding cDNA, a primer set, and other necessary reagents to wells of a 96-well PCR plate, preheating the plate using a thermal cycler at 95° C. for 3 minutes, followed by 35 cycles of steps of denaturation, annealing, and elongation in a repetitive manner, and measurement of […] after the elongation step for each cycle. The expression level of each gene was designated as a relative value obtained by dividing the determined amount of an amplification product of IGF-I, myostatin, MyoD, or myogenin by the amount of an amplification product of RPS9. […] The amount of GSSG used herein was determined in terms of the amount of free oxidized glutathione. […]

[1] = Examination 2-1: breeding performance at 21 and 28 days old after GSSG prestarter feed; type: in vivo, broiler chicks; conditions: 0.01% by mass GSSG feed for first 72 h, n = 6
Protocol: Newly hatched broiler chicks (Ross Breeders Ltd.) were fed with a feed composition for 3 days. The feed composition contained GSSG at a level of 0.01% by mass which was thought to be appropriate based on Examination 1. […] Two groups, which were a control group and a GSSG addition group (0.01% by mass), were set. In each group, 6 males and 6 females were tested. Chicks received at 0 day old were fed with a test feed composition (initial-phase feed composition) during 72 hours after the receipt. […] Their body weights, breast meat weights, leg meat weights, and liver weights were measured. As the initial-phase feed composition, the feed composition comprising 0.01% by mass of GSSG used in Examination 1 was used for the GSSG addition group, and the feed composition (ME3,100 kcal/kg, CP21) free of GSSG used in Examination 1 was used for the control group. […] An ammonium salt was used as oxidized glutathione (GSSG). The GSSG contained 95.6% by mass of oxidized glutathione, and the content of reduced glutathione mixed therein was 0.1% by mass or less.

In the case of oxidized glutathione [GSSG], the “mRNA expression level of myostatin vs control” value (myostatin) was “significant decrease”, the “myogenin expression level vs control group” value (myogenin) was “significant decreases” and the Breast meat ([1]; 21 days old) was 118 ± 4 g. For the same substance, the Leg meat ([1]; 21 days old) was 136 ± 6 g, the Weight ([1]; 21 days old) was 933 ± 65 g and the Breast meat ([1]; 28 days old) was 186 ± 15 g. For the same substance, the Leg meat ([1]; 28 days old) was 206 ± 12 g and the Weight ([1]; 28 days old) was 1500 ± 149 g.
